From US20240101592A1, “COMPOSITIONS AND METHODS FOR TREATING CNS DISORDERS” (Sage Therapeutics, Inc., priority 2020, published 2024)

Biological target: GABAA receptor ([35S]-TBPS binding, rat brain cortical membranes)
Assay: Steroid inhibition of [35S]-TBPS binding
Conditions: 3 nM [35S]-TBPS, in the presence of 5 mM GABA, 90 min at room temp
Description: Steroid Inhibition of TBPS Binding
[^35S]-t-Butylbicyclophosphorothionate (TBPS) binding assays using rat brain cortical membranes in the presence of 5 mM GABA has been described (Gee et al, J. Pharmacol. Exp. Ther. 1987, 241, 346-353; Hawkinson et al, Mol. Pharmacol. 1994, 46, 977-985; Lewin, A. H et al., Mol. Pharmacol. 1989, 35, 189-194).
Briefly, cortices are rapidly removed following decapitation of carbon dioxide-anesthetized Sprague-Dawley rats (200-250 g). The cortices are homogenized in 10 volumes of ice-cold 0.32 M sucrose using a glass/teflon homogenizer and centrifuged at 1500×g for 10 min at 4° C. The resultant supernatants are centrifuged at 10,000×g for 20 min at 4° C. to obtain the P2 pellets. The P2 pellets are resuspended in 200 mM NaCl/50 mM Na—K phosphate pH 7.4 buffer and centrifuged at 10,000×g for 10 min at 4° C. This washing procedure is repeated twice and the pellets are resuspended in 10 volumes of buffer. Aliquots ([…]) of the membrane suspensions are incubated with 3 nM [^35S]-TBPS and […] aliquots of test drug dissolved in dimethyl sulfoxide (DMSO) (final 0.5%) in the presence of 5 mM GABA. The incubation is brought to a final volume of 1.0 mL with buffer. Nonspecific binding is determined in the presence of […] and ranged from 15 to 25%. Following a 90 min incubation at room temp, the assays are terminated by filtration through glass fiber filters (Schleicher and Schuell No. 32) using a cell harvester (Brandel) and rinsed three times with ice-cold buffer. Filter bound radioactivity is measured by liquid scintillation spectrometry. Non-linear curve fitting of the overall data for each drug averaged for each concentration is done using Prism (GraphPad). […] The concentration of test compound producing 50% inhibition (IC50) of specific binding and the maximal extent of inhibition (Imax) are determined for the individual experiments with the same model used for the overall data and then the means±SEM.s of the individual experiments are calculated.
Various compounds are or can be screened to determine their potential as modulators of [^35S]-TBPS binding in vitro. These assays are or can be performed in accordance with the above.

SMILES | IC50 [nM]
CC(=O)[C@H]1[C@H]2C[C@H]2[C@H]2[C@@H]3CC[C@@H]4C[C@](C)(O)CC[C@@H]4[C@H]3CC[C@@]21C [Compound No. 9, 1-((2R,4aS,4bR,6aS,7S,7aS,8aR,8bR,8cR,10aR)-2-hydroxy-2,6a-dimethyloctadecahydrocyclopropa[4,5]cyclopenta[1,2-a]phenanthren-7-yl)ethanone] | < 100
CC(Cn1cc(C#N)cn1)[C@H]1[C@H]2C[C@H]2[C@H]2[C@@H]3CC[C@@H]4C[C@](C)(O)CC[C@@H]4[C@H]3CC[C@@]21C (single isomer, unassigned) [Compound No. 11] | < 100
CC(=O)[C@H]1CC[C@@]23C[C@@]12CC[C@H]1[C@H]3CC[C@H]2C[C@](C)(O)CC[C@@]21C [Compound No. 22, 1-((3R,5S,8R,9S,10S,13S,14S,17S)-3-hydroxy-3,10-dimethyltetradecahydro-1H-13,14-methanocyclopenta[a]phenanthren-17-yl)ethanone] | 100 to 1000
C[C@@]1(O)CC[C@H]2[C@H](CC[C@@H]3[C@@H]2CC[C@]2(C)[C@H](C(=O)Cn4cc(C#N)cn4)[C@H]4C[C@H]4C[C@@H]32)C1 [Compound No. 7, 1-(2-((2R,4aS,4bR,6aS,7R,7aS,8aS,9aS,9bR,11aR)-2-hydroxy-2,6a-dimethyloctadecahydro-1H-cyclopropa[b]chrysen-7-yl)-2-oxoethyl)-1H-pyrazole-4-carbonitrile] | > 1000
C[C@@]1(O)CC[C@H]2[C@H](CC[C@@H]3[C@@H]2CC[C@@]2(C)[C@H]3[C@@H]3C[C@@H]3C[C@@H]2C(=O)Cn2cc(C#N)cn2)C1 [Compound No. 8, 1-(2-((1S,2aR,3aR,3bS,3cR,5aR,7R,9aS,9bR,11aS)-7-hydroxy-7,11a-dimethyloctadecahydro-1H-cyclopropa[c]chrysen-1-yl)-2-oxoethyl)-1H-pyrazole-4-carbonitrile] | < 100
